A word on the IC50: it is the midpoint of a concentration-inhibition curve.

The target of this experiment is PI3Kα E545K (Homo sapiens, UniProt P42336, E545K). The experiment can be described thus: PI3Kα E545K mutant in vitro cell based assay, MCF-7 cells. The note with it: MCF-7 cell line, 0% FBS, 3 hours treatment. Put shortly: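 MCF-7 cells (PI3Kα E545K) in serum-free MEM with 1 μg/mL insulin were treated 3 h with 10-point 1:3 dilutions in 0.3% DMSO. Lysates were read by SureFire AlphaLisa. IC50 was fitted by 4-parameter logistic to % inhibition relative to DMSO (max) and 1 μM GDC-0032 (min), duplicates averaged.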
Chain of PI3Kα E545K (P42336 whole entry E545K): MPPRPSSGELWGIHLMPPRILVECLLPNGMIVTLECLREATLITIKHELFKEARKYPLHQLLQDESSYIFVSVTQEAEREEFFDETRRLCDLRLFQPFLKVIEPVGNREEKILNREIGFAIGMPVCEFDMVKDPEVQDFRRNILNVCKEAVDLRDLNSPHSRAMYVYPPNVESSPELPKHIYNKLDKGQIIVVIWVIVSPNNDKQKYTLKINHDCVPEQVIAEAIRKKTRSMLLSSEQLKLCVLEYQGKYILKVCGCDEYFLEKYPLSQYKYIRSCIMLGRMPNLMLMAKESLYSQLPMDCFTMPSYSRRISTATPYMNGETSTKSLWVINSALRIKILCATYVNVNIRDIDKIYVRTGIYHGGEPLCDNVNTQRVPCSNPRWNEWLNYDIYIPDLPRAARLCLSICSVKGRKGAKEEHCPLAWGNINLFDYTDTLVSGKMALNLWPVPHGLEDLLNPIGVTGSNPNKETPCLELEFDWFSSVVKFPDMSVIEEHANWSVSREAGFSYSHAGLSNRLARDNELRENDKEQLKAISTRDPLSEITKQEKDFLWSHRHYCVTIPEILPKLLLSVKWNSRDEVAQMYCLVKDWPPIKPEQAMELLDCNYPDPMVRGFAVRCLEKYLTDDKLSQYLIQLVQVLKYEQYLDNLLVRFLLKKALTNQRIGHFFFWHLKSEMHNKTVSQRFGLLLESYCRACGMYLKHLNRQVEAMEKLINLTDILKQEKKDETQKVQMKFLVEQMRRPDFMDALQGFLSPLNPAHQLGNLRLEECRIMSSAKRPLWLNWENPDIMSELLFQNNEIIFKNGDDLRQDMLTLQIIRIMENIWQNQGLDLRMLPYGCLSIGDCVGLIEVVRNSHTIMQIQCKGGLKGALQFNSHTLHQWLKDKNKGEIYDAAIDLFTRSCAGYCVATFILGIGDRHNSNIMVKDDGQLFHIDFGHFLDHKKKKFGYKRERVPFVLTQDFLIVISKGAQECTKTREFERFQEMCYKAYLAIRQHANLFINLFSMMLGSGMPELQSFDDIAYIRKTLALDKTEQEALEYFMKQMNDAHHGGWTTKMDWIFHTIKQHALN
Chain of PI3Kα E545K (P27986 whole entry partner): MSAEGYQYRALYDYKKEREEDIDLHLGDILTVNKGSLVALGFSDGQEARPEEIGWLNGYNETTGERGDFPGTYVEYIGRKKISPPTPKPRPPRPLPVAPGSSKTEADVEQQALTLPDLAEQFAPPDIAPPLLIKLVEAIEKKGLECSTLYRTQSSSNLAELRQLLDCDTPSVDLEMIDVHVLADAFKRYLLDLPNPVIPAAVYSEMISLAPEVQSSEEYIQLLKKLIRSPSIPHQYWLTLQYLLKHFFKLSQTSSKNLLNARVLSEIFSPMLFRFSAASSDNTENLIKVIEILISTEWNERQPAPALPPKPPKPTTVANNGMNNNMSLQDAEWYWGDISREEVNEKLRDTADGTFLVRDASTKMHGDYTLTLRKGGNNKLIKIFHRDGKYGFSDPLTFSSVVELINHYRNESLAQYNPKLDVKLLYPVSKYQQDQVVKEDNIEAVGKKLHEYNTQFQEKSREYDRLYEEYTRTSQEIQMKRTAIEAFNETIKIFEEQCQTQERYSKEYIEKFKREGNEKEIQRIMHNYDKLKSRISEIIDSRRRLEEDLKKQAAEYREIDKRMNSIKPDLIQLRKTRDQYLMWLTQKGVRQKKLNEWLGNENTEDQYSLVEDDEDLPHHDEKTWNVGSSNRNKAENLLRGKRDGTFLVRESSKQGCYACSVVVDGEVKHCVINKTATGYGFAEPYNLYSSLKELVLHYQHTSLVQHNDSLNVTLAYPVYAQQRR

The compound `Cc1cc([C@@H](C)Oc2ccc(Cl)nc2-c2noc(=O)[nH]2)c2oc(-c3ccc4c(c3)OC(F)(F)O4)c(C)c(=O)c2c1` [Example 46A, 3-[6-Chloro-3-[(1R)-1-[2-(2,2-difluoro-1,3-benzodioxol-5-yl)-3,6-dimethyl-4-oxo-chromen-8-yl]ethoxy]-2-pyridyl]-4H-1,2,4-oxadiazol-5-one] registered an IC50 of less than 500 nM.

The compound `Cc1cc([C@@H](C)Oc2ccc(Cl)nc2NS(C)(=O)=O)c2oc(-c3cnn(C)c3)c(C)c(=O)c2c1` [Example 149A, N-[6-Chloro-3-[(1R)-1-[3,6-dimethyl-2-(1-methylpyrazol-4-yl)-4-oxo-chromen-8-yl]ethoxy]-2-pyridyl]methanesulfonamide] returned an IC50 of less than 500 nM.

The record behind these values is patent publication US20240182460A1, “ALLOSTERIC CHROMENONE INHIBITORS OF PHOSPHOINOSITIDE 3-KINASE (PI3K) FOR THE TREATMENT OF DISEASE” (PETRA PHARMA CORPORATION, priority 2022, published 2024).
